# Laboratory results from BindingDB's records for doi:10.1074/jbc.M112.380782 (French Alternative Energies and Atomic Energy Commission, 2012).
# What was measured:
# Assay in all cases: Enzyme Assay
# [1] = target: 72 kDa type IV collagenase (Homo sapiens, UniProt P08253); conditions: pH 6.8; 25 °C
# [2] = target: T1, A disintegrin and metalloproteinase with thrombospondin motifs 5 (Homo sapiens, UniProt Q9UNA0); conditions: pH 6.8; 37 °C
# T1 sequence (Q9UNA0 whole entry): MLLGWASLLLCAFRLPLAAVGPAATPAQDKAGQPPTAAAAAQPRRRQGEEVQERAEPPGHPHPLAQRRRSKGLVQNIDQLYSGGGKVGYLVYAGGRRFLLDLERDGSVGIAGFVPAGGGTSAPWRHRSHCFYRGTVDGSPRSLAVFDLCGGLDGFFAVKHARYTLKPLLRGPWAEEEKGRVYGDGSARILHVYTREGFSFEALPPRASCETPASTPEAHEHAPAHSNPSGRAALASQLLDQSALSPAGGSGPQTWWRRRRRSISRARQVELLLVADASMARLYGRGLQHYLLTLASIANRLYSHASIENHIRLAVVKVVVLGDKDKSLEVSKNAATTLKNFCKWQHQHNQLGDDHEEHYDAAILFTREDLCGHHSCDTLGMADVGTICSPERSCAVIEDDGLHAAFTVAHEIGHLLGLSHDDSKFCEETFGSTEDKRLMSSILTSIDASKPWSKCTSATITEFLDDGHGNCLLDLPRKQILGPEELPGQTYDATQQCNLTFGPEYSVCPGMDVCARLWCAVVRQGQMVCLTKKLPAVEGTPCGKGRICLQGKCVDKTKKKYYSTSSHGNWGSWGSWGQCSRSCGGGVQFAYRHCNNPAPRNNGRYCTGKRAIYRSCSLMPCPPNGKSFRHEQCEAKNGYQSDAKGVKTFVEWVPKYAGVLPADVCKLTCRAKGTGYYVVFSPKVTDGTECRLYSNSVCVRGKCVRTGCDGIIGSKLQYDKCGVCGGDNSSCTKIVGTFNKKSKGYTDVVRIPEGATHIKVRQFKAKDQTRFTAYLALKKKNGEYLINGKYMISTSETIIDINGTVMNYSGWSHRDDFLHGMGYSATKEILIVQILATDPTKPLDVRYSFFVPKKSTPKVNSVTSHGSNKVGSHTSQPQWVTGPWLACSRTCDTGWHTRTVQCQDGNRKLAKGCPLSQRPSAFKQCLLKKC
# [3] = target: Collagenase 3 (Homo sapiens, UniProt P45452); conditions: pH 6.8; 25 °C
# [4] = target: Macrophage metalloelastase (Homo sapiens, UniProt P39900); conditions: pH 6.8; 25 °C
# Macrophage metalloelastase, sequence (P39900 whole entry): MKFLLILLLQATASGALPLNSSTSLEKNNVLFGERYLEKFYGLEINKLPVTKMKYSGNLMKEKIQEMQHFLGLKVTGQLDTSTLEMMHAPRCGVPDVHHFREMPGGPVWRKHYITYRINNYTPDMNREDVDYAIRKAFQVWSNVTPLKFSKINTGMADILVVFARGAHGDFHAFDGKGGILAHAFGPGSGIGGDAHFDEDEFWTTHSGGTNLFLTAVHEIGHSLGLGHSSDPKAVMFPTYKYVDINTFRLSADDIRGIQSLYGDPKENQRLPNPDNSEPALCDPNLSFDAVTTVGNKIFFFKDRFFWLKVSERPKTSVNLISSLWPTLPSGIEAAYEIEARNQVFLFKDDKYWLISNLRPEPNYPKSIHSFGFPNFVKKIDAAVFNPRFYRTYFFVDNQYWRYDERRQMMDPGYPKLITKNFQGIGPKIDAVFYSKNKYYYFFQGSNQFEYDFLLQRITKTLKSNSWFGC
# [5] = target: Matrix metalloproteinase-14 (Homo sapiens, UniProt P50281); conditions: pH 6.8; 25 °C
# [6] = target: Matrix metalloproteinase-9 (Homo sapiens, UniProt P14780); conditions: pH 6.8; 25 °C
# Matrix metalloproteinase-9, sequence (P14780 whole entry): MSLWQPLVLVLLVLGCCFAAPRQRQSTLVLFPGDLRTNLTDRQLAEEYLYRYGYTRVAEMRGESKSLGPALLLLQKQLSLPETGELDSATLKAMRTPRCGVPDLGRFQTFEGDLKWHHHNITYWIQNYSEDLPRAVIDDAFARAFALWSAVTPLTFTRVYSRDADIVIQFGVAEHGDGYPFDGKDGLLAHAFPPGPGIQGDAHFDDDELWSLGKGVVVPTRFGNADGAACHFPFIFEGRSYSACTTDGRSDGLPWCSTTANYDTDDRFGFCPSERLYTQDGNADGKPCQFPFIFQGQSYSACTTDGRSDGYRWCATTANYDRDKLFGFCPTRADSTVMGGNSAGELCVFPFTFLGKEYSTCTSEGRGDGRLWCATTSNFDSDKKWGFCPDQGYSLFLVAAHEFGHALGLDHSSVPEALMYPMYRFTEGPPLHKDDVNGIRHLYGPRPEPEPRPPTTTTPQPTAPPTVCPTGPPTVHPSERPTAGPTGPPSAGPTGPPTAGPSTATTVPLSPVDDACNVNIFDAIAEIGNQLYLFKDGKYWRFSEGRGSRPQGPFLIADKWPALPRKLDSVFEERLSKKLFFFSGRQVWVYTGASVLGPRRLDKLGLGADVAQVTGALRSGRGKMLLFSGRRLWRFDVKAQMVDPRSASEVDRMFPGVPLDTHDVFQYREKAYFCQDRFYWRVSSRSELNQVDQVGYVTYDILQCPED
# [7] = target: Stromelysin-1 (Homo sapiens, UniProt P08254); conditions: pH 6.8; 25 °C
# Stromelysin-1, sequence (P08254 whole entry): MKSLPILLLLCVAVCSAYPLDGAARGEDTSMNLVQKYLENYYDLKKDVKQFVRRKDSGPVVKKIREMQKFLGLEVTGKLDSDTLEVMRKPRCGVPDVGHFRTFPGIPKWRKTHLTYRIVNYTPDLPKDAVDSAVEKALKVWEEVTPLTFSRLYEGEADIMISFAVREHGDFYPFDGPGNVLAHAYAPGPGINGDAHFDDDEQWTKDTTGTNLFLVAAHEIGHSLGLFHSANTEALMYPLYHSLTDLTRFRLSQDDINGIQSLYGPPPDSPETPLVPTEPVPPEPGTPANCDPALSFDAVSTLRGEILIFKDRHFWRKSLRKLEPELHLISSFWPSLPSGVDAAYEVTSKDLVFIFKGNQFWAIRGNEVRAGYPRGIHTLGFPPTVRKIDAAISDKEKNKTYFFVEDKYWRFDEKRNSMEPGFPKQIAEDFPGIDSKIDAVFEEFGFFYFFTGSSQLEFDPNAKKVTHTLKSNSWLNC
# [8] = target: Stromelysin-2 (Homo sapiens, UniProt P09238); conditions: pH 6.8; 25 °C
# Stromelysin-2, sequence (P09238 whole entry): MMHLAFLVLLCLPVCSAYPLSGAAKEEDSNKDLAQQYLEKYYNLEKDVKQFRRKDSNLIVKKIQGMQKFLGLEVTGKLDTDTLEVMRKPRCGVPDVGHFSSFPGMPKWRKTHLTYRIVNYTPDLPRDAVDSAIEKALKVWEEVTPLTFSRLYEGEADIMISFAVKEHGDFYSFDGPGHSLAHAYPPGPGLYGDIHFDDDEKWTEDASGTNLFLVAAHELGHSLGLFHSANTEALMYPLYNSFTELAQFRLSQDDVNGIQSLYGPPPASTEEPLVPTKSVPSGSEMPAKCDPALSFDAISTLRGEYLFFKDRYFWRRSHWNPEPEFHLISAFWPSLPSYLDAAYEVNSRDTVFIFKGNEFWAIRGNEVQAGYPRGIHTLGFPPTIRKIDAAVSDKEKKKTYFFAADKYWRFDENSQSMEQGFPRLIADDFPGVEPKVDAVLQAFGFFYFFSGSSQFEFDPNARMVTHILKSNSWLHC
# [9] = target: T2, A disintegrin and metalloproteinase with thrombospondin motifs 4 (Homo sapiens, UniProt O75173); conditions: pH 6.8; 25 °C
# T2 sequence (O75173 whole entry): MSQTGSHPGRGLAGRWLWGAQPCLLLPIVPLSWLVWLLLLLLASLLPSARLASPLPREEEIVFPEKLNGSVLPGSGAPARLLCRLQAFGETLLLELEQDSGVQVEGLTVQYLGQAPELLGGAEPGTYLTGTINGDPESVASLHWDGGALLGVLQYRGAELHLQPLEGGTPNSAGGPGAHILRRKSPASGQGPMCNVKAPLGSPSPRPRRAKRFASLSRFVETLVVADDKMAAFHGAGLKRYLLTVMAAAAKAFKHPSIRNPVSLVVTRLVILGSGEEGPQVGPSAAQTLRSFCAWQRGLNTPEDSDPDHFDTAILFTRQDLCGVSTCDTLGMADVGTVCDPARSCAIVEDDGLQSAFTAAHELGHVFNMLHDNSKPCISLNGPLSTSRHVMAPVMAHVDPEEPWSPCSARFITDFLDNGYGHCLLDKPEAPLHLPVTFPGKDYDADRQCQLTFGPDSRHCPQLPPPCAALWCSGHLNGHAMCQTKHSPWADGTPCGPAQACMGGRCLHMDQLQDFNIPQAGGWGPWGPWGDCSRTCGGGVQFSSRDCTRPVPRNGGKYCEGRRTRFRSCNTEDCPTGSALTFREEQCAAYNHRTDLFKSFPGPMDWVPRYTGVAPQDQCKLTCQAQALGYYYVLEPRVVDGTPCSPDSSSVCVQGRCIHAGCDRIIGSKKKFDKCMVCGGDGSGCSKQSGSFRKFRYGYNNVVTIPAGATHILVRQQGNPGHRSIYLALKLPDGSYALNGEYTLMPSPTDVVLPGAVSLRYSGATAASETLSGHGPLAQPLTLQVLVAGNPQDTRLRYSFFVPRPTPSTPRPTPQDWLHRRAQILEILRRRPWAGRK
# [10] = target: Neutrophil collagenase (Homo sapiens, UniProt P22894); conditions: pH 6.8; 25 °C
# Neutrophil collagenase, sequence (P22894 whole entry): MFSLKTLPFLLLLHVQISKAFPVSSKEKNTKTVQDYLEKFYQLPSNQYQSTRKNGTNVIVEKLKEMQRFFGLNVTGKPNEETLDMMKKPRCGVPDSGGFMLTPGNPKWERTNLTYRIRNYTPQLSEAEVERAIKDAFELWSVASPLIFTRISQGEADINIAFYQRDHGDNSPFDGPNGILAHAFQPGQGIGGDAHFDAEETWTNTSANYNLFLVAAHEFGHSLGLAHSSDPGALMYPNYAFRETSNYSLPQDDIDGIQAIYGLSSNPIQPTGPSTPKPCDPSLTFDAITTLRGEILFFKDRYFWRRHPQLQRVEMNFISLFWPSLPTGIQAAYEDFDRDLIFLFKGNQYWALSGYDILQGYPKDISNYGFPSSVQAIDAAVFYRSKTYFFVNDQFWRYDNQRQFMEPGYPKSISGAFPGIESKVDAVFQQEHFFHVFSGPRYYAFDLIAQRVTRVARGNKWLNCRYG
# [11] = target: T3, Interstitial collagenase (Homo sapiens, UniProt P03956); conditions: pH 6.8; 25 °C
# T3 sequence (P03956 whole entry): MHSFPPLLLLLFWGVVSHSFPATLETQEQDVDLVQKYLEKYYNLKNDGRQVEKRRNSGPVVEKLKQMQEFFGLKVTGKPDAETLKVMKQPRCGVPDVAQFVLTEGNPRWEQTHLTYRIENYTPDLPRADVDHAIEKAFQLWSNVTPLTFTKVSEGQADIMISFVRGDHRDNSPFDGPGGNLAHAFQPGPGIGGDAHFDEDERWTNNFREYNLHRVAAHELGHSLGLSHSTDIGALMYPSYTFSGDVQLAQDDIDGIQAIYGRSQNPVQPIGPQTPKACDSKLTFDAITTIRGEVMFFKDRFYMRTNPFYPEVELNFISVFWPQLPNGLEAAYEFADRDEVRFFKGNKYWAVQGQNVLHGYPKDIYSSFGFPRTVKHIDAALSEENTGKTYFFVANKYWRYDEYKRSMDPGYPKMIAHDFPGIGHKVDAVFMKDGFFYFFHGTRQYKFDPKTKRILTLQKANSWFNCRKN
# [12] = target: T4, Matrilysin (Homo sapiens, UniProt P09237); conditions: pH 6.8; 25 °C
# T4 sequence (P09237 whole entry): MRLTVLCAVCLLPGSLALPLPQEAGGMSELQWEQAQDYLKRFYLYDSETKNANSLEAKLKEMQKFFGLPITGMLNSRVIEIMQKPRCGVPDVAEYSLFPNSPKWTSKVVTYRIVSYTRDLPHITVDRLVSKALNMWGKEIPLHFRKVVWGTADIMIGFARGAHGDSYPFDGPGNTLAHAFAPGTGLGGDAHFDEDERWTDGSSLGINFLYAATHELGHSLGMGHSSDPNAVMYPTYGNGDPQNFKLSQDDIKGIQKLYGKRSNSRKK
# 72 kDa type IV collagenase, sequence (P08253 whole entry): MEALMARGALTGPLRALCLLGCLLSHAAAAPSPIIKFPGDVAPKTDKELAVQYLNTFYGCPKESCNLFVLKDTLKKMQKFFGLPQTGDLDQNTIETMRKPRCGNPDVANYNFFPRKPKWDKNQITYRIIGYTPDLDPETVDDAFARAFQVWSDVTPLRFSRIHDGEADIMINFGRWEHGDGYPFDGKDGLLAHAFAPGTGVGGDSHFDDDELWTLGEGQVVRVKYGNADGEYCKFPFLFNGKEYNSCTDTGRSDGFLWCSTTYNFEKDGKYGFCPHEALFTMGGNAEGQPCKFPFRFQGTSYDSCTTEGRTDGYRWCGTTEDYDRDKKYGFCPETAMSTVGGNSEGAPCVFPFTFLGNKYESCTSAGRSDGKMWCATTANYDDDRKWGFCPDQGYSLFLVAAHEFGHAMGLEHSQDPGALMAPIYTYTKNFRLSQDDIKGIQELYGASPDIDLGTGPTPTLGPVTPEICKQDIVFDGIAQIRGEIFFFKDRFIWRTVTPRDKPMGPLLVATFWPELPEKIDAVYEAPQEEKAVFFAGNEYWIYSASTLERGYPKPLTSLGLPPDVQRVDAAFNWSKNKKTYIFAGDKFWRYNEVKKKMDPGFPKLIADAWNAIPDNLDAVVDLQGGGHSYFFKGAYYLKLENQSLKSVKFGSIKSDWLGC
Ki [1] [nM],Ki [2] [nM],Ki [3] [nM],Ki [4] [nM],Ki [5] [nM],Ki [6] [nM],Ki [7] [nM],Ki [8] [nM],Ki [9] [nM],Ki [10] [nM],IC50 [1] [nM],IC50 [3] [nM],IC50 [11] [nM],IC50 [12] [nM],IC50 [5] [nM],IC50 [6] [nM],IC50 [10] [nM],IC50 [7] [nM],Structure (SMILES),Ki [11] [nM]
127,874,501,2.5,968,2230,5820,299,,,,,,,,,,,"NC(=O)[C@H](CCC(=O)O)NC(=O)c1ccc(-c2cc(-c3ccccc3)cs2)cc1 [Inhibitor, 16]",
57,3220,338,3.3,2350,91,2160,390,> 10000,5.3,,,,,,,,,"Cc1ccc(-c2ccc(CCC(=O)N[C@@H](CCC(=O)O)C(N)=O)cc2)s1 [Inhibitor, 17]",
47,5800,18,3.3,1050,2190,103,54,,205,,,,,,,,,"NC(=O)[C@H](CCC(=O)O)NC(=O)CCc1ccc(-c2ccc(-c3ccccc3)cc2)cc1 [Inhibitor, 18]",
583,585,,2.9,> 10000,1330,329,352,,,,,,,,,,,"NC(=O)[C@H](CCC(=O)O)NC(=O)CCc1ccc(-c2ccc(-c3ccccc3)s2)cc1 [Inhibitor, 19]",
,,,,,,,,,,66,46,> 2000,> 2000,> 2000,> 300,37,> 300,"CC(C)C(NS(=O)(=O)c1ccc2c(c1)oc1ccc(N3CCOC3=O)cc12)C(=O)O (stereo unspecified) [MMP Inhibitor, 2]",
,,,,,,,,,,,33.4,,,,,,,"O=C(NCc1ccc(F)c(Cl)c1)c1cc(C(=O)NCC23CCC(C(=O)O)(CC2)CC3)n2nccc2n1 [MMP Inhibitor, 6]",
,4200,,3.6,3010,2630,3000,3110,,,,,,,,,,,"NC(=O)[C@H](CCC(=O)O)NC(=O)CCc1ccc(-c2cc(-c3ccccc3)cs2)cc1 [US8691753, 105]",

Structure (SMILES),Ki [1] [nM],Ki [2] [nM],Ki [3] [nM],Ki [4] [nM],Ki [5] [nM],Ki [6] [nM],Ki [7] [nM],Ki [8] [nM],Ki [9] [nM],Ki [10] [nM],IC50 [1] [nM],IC50 [3] [nM],IC50 [11] [nM],IC50 [12] [nM],IC50 [5] [nM],IC50 [6] [nM],IC50 [10] [nM],IC50 [7] [nM],Ki [11] [nM]
"NC(=O)[C@@H](CCC(=O)O)NC(=O)[C@H](CCC(=O)O)NC(=O)C(Cc1cc(-c2ccc(-c3cccc(Cl)c3)cc2)no1)CP(=O)(O)c1ccc(Br)cc1 (stereo partly specified) [RXP470, Compound 4]",> 100,,,0.2,> 100,> 100,,8,,> 100,,,,,,,,,> 1000
